From ChEMBL document CHEMBL5696439 (Cancer Res, 2010)
Activity calls are given as the source filed them. No cut-off for these calls is given here.

Assays:
[1] = biological target: Homeodomain-interacting protein kinase 1 (Homo sapiens) (UniProt Q86Z02); assay: Inhibition of recombinant human GST-tagged HIPK1 (158-555 residues) expressed in insect cells at 2 uM using Ser/Thr 09 as substrate measured after 1 hr by Z'-LYTE assay relative to control; conditions: Insect cell
[2] = biological target: Ephrin type-A receptor 1 (Homo sapiens) (UniProt P21709); assay: Inhibition of recombinant human GST-tagged EPHA1 (568-976 residues) expressed in insect cells at 2 uM using Tyr 02 as substrate measured after 1 hr by Z'-LYTE assay relative to control; conditions: Insect cell
[3] = biological target: Platelet-derived growth factor receptor alpha (Homo sapiens) (UniProt P16234); assay: Inhibition of recombinant human GST-tagged PDGFRA (550-1089 residues) expressed in baculovirus expression system at 2 uM using Tyr 04 as substrate measured after 1 hr by Z'-LYTE assay relative to control
[4] = test system: Proto-oncogene tyrosine-protein kinase receptor Ret (Homo sapiens), P07949 [Y791F]; assay: Inhibition of recombinant human GST-tagged RET Y791F mutant (658-1114 residues) expressed in baculovirus expression system at 2 uM using Tyr 02 as substrate measured after 1 hr by Z'-LYTE assay relative to control
[5] = biological target: Serine/threonine-protein kinase PAK 2 (Homo sapiens) (UniProt Q13177); assay: Inhibition of recombinant human full length GST-tagged PAK2 expressed in insect cells at 2 uM using Ser/Thr 20 as substrate measured after 1 hr by Z'-LYTE assay relative to control; conditions: Insect cell
[6] = test system: Proto-oncogene tyrosine-protein kinase receptor Ret (Homo sapiens), P07949 [V804L]; assay: Inhibition of recombinant human GST-tagged RET V804L mutant (658-1114 residues) expressed in baculovirus expression system at 2 uM using Tyr 02 as substrate measured after 1 hr by Z'-LYTE assay relative to control
[7] = biological target: Ephrin type-A receptor 2 (Homo sapiens) (UniProt P29317); assay: Inhibition of recombinant human GST-tagged EPHA2 (568-976 residues) expressed in insect cells at 2 uM using Tyr 01 as substrate measured after 1 hr by Z'-LYTE assay relative to control; conditions: Insect cell
MDA-MB-361 [8] = assay: Induction of apoptosis in human MDA-MB-361 cells assessed as induction in cell death at 30 nmol/L incubated for 48 hrs by FACS analysis relative to control; type: functional
A549 = assay: Antitumor activity against human A549 cells xenografted in female nude mouse model assessed as inhibition in tumor growth at 10 to 50 mg/kg, po qd administered as 5 days on/2 days off regimen for 4 cycles; type: functional, organism-based; conditions: dose 10-50 mg/kg, time 28.0 day
HCT-116 = assay: Induction of apoptosis in human HCT-116 cells assessed as increase in PARP cleavage at 0.3 to 3 micromol/L incubated for 48 hrs by Western blot analysis; type: functional, cell-based; conditions: dose 0.3-3 µmol/L
mTORC1 (Homo sapiens) = mTORC1 (Homo sapiens) (UniProt P42345+Q8N122+Q9BVC4); conditions: U-87 MG, dose 0.025-2 µmol/L, time 6.0 hrs
LNCaP = assay: Induction of apoptosis in human LNCaP cells assessed as increase in PARP cleavage at 0.3 to 3 micromol/L incubated for 48 hrs by Western blot analysis; type: functional, cell-based; conditions: dose 0.3-3 µmol/L
MDA-MB-361 [9] = assay: Induction of apoptosis in human MDA-MB-361 cells assessed as change in AKT phosphorylation at T308 level at 0.05 to 5 micromol/L incubated for 48 hrs by Western blot analysis; type: functional, cell-based; conditions: dose 0.05-5 µmol/L
MDA-MB-361 [10] = assay: Antitumor activity against human MDA-MB-361 cells xenografted in female nude mouse model assessed as reduction in P-AKT at T308 level at 50 mg/kg, iv administered once a week and measured at least 8 hrs by immunoblot analysis; type: functional, organism-based
[11] = biological target: Serine/threonine-protein kinase MRCK alpha (Homo sapiens) (UniProt Q5VT25); assay: Inhibition of recombinant human His-tagged CDC42BPA (1-473 residues) expressed in baculovirus expression system at 2 uM using Ser/Thr 13 as substrate measured after 1 hr by Z'-LYTE assay relative to control
A498 [12] = assay: Antiproliferative activity against human A498 cells assessed as cell growth inhibition at 10 micromol/L incubated for 3 days by MTS assay relative to control; type: functional; conditions: A498, 72 h, dose 10 µmol/L, time 3 day
[13] = biological target: Fibroblast growth factor receptor 2 (Homo sapiens) (UniProt P21802); assay: Inhibition of recombinant human His-tagged FGFR2 (403-822 residues) expressed in baculovirus expression system at 2 uM using Tyr 04 as substrate measured after 1 hr by Z'-LYTE assay relative to control
[14] = biological target: Serine/threonine-protein kinase Nek7 (Homo sapiens) (UniProt Q8TDX7); assay: Inhibition of recombinant human His-tagged NEK7 (8-313 residues) expressed in insect cells at 2 uM using Ser/Thr 22 as substrate measured after 1 hr by Z'-LYTE assay relative to control; conditions: Insect cell
Rat1 = assay: Inhibition of mTORC1 in rat Rat1 cells assessed as S6K phosphorylation at T389 level preincubated for 1 hrs in the presence of IGF-1 stimulation by immunoblot assay; type: cell-based; conditions: dose 0.01-2 µmol/L
[15] = biological target: SRSF protein kinase 2 (Homo sapiens) (UniProt P78362); assay: Inhibition of recombinant human full length GST-tagged SRPK2 expressed in insect cells at 2 uM using Ser/Thr 07 as substrate measured after 1 hr by Z'-LYTE assay relative to control; conditions: Insect cell
MDA-MB-361 [16] = assay: Induction of apoptosis in human MDA-MB-361 cells assessed as induction in cell death at 3 micromol/L incubated for 48 hrs by FACS analysis relative to control; type: functional; conditions: dose 3 µmol/L, at 3 µM
[17] = test system: Tyrosine-protein kinase ABL1 (Homo sapiens), P00519 [G250E]; assay: Inhibition of recombinant human full-length His-tagged ABL1 G250E mutant expressed in insect cells at 2 uM using Tyr 02 as substrate measured after 1 hr by Z'-LYTE assay relative to control; conditions: Insect cell
A498 [18] = assay: Synergistic antitumor activity against human A498 cells xenografted in female nude mouse model assessed as cause in tumor regression at 50 mg/kg, po qd administered as 5 days on/2 days off regimen for 4 cycles in the presence of BEV; type: functional, organism-based; conditions: time 28.0 day
[19] = test system: Tyrosine-protein kinase ABL1 (Homo sapiens), P00519 [T315I]; assay: Inhibition of recombinant human full-length His-tagged ABL1 T315I mutant expressed in insect cells at 2 uM using Tyr 02 as substrate measured after 1 hr by Z'-LYTE assay relative to control; conditions: Insect cell
[20] = biological target: MAP kinase-activated protein kinase 5 (Homo sapiens) (UniProt Q8IW41); assay: Inhibition of recombinant human full length His-tagged MAPKAPK5 expressed in baculovirus expression system at 2 uM using Ser/Thr 04 as substrate measured after 1 hr by Z'-LYTE assay relative to control
MAP kinase-activated protein kinase 5 (Homo sapiens), sequence (Q8IW41 whole entry): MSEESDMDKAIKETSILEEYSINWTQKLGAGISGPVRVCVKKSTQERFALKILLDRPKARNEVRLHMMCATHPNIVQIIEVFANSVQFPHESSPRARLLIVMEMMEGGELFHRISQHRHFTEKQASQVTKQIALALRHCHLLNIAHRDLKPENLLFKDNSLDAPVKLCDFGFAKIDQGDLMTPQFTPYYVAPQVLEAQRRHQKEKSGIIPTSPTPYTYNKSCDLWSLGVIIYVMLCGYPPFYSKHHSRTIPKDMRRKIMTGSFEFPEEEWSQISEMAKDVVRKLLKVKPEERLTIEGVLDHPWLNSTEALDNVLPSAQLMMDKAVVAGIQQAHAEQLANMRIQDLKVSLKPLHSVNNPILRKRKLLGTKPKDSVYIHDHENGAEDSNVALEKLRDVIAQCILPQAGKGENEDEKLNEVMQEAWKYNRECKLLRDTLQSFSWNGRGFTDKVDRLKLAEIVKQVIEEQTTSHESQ

mTORC1 (Homo sapiens), sequence (Q8N122 whole entry, looked up, other chains not shown): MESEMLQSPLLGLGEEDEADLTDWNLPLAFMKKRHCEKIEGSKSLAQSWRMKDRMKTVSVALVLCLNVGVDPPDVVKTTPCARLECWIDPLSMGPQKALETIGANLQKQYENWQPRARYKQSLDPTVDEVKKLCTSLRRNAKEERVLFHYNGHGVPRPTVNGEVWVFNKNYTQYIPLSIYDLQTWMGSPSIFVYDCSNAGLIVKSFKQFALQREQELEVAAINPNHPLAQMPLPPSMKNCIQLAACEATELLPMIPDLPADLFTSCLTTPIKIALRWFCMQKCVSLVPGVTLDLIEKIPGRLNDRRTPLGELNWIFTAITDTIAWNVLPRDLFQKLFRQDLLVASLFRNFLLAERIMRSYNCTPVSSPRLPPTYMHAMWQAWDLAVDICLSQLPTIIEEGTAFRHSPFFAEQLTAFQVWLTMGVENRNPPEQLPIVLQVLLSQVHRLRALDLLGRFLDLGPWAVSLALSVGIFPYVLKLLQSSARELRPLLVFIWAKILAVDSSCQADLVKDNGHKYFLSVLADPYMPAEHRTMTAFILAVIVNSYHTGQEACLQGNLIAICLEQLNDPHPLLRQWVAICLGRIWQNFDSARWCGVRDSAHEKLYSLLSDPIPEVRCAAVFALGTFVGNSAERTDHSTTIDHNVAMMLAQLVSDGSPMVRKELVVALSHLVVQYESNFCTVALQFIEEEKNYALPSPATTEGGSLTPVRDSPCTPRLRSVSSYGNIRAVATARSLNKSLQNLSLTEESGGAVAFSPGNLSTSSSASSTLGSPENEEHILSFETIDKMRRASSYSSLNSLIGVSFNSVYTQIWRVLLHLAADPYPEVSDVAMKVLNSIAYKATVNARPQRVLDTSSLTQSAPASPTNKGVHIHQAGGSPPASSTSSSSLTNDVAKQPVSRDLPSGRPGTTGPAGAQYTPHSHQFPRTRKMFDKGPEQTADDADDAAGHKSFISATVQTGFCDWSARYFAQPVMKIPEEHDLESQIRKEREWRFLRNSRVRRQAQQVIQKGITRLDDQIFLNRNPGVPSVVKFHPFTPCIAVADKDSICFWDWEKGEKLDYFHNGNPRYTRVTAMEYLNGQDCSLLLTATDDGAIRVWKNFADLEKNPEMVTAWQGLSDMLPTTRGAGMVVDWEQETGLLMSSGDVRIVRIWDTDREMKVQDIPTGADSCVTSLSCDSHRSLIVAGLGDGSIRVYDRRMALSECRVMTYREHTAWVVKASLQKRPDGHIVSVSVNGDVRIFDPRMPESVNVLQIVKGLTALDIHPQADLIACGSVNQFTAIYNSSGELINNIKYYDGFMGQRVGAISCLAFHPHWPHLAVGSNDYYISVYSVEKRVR
mTORC1 (Homo sapiens), sequence (Q9BVC4 whole entry, looked up, other chains not shown): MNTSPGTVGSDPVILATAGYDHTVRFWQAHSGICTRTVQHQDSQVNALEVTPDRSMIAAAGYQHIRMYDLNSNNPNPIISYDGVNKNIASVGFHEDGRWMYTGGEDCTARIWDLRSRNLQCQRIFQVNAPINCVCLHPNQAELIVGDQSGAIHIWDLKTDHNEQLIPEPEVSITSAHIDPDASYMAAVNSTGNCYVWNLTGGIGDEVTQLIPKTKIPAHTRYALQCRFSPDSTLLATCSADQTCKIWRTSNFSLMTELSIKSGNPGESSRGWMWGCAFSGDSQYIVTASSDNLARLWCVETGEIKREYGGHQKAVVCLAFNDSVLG
Serine/threonine-protein kinase Nek7 (Homo sapiens), sequence (Q8TDX7 whole entry, looked up, the tested form may be a part): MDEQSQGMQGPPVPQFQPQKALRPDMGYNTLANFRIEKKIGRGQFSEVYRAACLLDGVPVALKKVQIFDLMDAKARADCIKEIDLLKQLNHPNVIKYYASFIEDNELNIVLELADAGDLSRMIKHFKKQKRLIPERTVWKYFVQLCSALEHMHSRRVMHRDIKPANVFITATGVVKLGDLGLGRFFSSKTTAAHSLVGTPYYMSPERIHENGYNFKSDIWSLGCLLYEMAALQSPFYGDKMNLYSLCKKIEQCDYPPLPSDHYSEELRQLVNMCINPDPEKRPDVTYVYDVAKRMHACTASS
Platelet-derived growth factor receptor alpha (Homo sapiens), sequence (P16234 whole entry, the tested form may be a part): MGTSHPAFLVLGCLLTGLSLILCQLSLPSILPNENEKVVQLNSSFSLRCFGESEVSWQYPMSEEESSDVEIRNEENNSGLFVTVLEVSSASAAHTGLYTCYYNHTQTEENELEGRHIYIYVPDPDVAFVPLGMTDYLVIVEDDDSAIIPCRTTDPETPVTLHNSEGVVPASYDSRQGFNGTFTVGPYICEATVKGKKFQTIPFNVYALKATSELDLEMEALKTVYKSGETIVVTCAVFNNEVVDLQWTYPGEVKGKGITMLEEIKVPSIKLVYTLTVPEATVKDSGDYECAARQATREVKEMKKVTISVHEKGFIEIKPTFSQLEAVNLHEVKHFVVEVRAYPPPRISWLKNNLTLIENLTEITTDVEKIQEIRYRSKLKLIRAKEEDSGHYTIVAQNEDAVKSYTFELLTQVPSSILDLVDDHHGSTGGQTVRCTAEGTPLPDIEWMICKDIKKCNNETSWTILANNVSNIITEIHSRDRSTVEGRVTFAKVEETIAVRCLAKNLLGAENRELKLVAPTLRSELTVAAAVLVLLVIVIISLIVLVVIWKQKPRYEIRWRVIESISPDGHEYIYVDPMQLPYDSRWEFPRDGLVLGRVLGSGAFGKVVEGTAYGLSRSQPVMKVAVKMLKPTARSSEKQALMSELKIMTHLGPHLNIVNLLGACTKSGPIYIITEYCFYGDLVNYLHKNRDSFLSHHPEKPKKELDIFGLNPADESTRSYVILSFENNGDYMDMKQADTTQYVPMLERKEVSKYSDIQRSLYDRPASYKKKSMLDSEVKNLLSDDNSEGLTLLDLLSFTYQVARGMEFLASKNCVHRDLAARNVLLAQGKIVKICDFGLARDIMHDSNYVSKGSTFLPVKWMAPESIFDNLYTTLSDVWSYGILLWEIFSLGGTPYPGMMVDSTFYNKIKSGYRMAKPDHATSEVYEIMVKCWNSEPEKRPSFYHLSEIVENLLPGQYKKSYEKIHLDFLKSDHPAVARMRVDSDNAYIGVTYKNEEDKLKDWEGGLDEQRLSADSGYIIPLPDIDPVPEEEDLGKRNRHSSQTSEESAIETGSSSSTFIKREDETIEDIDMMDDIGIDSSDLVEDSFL
SRSF protein kinase 2 (Homo sapiens), sequence (P78362 whole entry, looked up): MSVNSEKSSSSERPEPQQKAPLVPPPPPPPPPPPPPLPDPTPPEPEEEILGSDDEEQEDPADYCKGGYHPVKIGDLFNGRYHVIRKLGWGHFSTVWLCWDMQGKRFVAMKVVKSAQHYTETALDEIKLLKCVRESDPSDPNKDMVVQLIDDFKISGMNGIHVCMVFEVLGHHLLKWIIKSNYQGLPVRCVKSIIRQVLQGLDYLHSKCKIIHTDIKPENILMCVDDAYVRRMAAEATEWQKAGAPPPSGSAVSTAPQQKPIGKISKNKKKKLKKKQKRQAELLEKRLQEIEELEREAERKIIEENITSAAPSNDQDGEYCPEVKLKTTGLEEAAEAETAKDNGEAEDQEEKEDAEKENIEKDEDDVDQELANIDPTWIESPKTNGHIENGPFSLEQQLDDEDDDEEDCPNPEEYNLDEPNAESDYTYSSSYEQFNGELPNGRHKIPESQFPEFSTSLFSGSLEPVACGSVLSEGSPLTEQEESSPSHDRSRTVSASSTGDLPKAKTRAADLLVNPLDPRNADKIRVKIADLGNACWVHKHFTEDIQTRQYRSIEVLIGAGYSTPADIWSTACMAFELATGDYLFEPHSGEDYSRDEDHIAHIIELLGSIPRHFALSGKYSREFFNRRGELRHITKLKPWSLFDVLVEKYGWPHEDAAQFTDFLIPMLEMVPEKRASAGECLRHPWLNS
Fibroblast growth factor receptor 2 (Homo sapiens), sequence (P21802 22-821 limits assumed): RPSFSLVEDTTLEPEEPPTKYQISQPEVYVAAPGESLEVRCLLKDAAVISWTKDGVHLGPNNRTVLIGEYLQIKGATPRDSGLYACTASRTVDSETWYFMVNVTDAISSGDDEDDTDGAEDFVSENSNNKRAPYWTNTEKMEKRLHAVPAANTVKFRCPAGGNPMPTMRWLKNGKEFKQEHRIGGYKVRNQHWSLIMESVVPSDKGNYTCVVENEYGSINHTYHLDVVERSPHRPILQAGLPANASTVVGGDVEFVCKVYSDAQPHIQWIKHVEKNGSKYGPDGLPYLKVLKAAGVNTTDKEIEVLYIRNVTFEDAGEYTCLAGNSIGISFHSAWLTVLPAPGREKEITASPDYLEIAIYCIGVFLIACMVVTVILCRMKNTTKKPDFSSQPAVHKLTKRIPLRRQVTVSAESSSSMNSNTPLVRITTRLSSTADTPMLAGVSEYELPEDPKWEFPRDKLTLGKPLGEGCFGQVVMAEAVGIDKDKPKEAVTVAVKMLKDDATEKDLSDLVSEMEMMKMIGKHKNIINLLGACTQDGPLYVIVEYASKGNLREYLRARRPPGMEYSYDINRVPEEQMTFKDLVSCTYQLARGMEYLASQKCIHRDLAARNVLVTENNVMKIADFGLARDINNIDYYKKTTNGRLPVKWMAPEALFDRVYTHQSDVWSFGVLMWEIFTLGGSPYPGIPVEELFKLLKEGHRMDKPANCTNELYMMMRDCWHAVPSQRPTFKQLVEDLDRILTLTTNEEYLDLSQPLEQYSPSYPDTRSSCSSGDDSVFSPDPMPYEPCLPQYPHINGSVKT

Work on `CNC(=O)Nc1ccc(-c2nc(N3CC4CCC(C3)O4)c3cnn(C4CCC5(CC4)OCCO5)c3n2)cc1` yielded an inhibition [1] of 1%, an inhibition [2] of 3% and an inhibition [3] of 0%. The inhibition [4] was 2%, the inhibition [5] was 15% and the inhibition [6] was 2%. For the same compound, the inhibition [7] was 8%, the Activity (MDA-MB-361 [8]) was 13% and the inhibition (A549) was “Dose-Dependent Effect”. For the same compound, the Activity (HCT-116) was “inactive”, the inhibition (mTORC1 (Homo sapiens)) was “Active” and the Activity (LNCaP) was “Active”. For the same compound, the Activity (MDA-MB-361 [9]) was “inactive”, the Activity (MDA-MB-361 [10]) was “inactive” and the inhibition [11] was 7%. It also gave an inhibition at 10 µM (A498 [12]) of 100%, an inhibition [13] of 4% and an inhibition [14] of -3%. The inhibition (Rat1) was “Active”, the inhibition [15] was 1% and the Activity (MDA-MB-361 [16]) was 59%. The inhibition [17] was 3%, the Activity (A498 [18]) was “Active” and the inhibition [19] was 0%. The inhibition [20] was 5%.
